In PMC12131194, “Rational design, synthesis, and evaluation of novel polypharmacological compounds targeting NaV1.5, KV1.5, and K2P channels for atrial fibrillation” (The Journal of Biological Chemistry, 2025):
Where “and” joins values, the source holds several entries; their conditions need not be identical. Equal values may be shown once.

What was measured:
human TASK-1 = human TASK-1 (Homo sapiens, UniProt O14649); assay: TEVC recordings in X. laevis oocytes, TASK-1; type: cell-based; design: human TASK-1 (KCNK3, NM_002246); expressed in transfected cells; host or cells: Xenopus laevis oocytes injected with cRNA; conditions: for Ionic current block IK2P: from inhibition curves, used for simulation
Protocol: (§1) The two-electrode voltage clamp (TEVC) technique was used for electrophysiology tests. Channels were expressed in Xenopus laevis oocytes. The initial channel-blocking potential was assessed at 100 μM for the 10 synthesized compounds on TASK-1 and KV1.5 channels.
(§2) To obtain X. laevis oocytes, the frogs were anesthetized with 2 g/L of tricaine methanesulfonate, and the ovarian lobes were mechanically separated with forceps. The oocytes were incubated for 120 min in an OR2 solution containing in mM: NaCl 82.5, KCl 2, MgCl2 1, HEPES 5 (pH 7.5) supplemented with 2 mg/ml of collagenase II (Sigma) to remove residual connective tissue and obtain individual oocytes. Subsequently, the oocytes were washed with a ND96 solution containing in mM: NaCl 96, KCl 2, CaCl2 1.8, MgCl2 1, HEPES 5 (pH 7.5, adjusted with NaOH) and stored at 18 °C in ND96 solution supplemented with 1 ml of gentamicin (50 mg/L), sodium pyruvate (275 mg/L) and (90 mg/L) theophylline (inhibits further oocyte maturation) before and after RNA injection.
(§3) In order to overexpress the channel in the oocyte, each of the channels to be measured was subcloned (complementary DNA (cDNA); human TASK-1 (KCNK3, NM_002246), h KV1.5 (KCNA5, NM_002234), h NaV1.5 (hH1, M77235), TASK-4/TALK-2 (KCNK17, NM_AF358910), TREK-1 (KCNK2, AF004711) and Kir2.1 (KCNJ2, NM_017296) into pSGEM, pBF1 or pSP64 expression vector, and the cDNA was linearized with NheI or MluI. Complementary RNA (cRNA) was synthesized with the mMESSAGE mMACHINE-Kit (Ambion). The quality of the cRNA was tested on an agarose gel by electrophoresis. cRNA was quantified using a UV-Vis spectrophotometer (NanoDrop 2000). Subsequently, the channel was transfected in the oocytes in stages V and VI, for which […] (TASK-1, KV1.5 or TREK-1), 10 ng (NaV1.5 or TASK-4) o 2.5 ng (Kir2.1) per oocyte of cRNA was injected with a NanojectII microinjector (Drummond Scientific). The oocytes were stored in 24-well plates for 24 to 48 h at 18 °C. After this time, the overexpression of each channel was monitored through electrophysiology.
(§4) Two-electrode voltage clamp measurements were performed 24 or 48 h after cRNA injection at room temperature (20–22 °C) in ND96 recording solution with a TurboTEC-10CD (npi) amplifier and a Digidata 1550B (for TASK-1 and KV1.5) and 1440A (for NaV1.5) A/D converter from Axon Instruments. Micropipettes were fabricated from GB 150 TF-8P borosilicate glass capillaries (Science Products) elongated in a DMZ-Universal Puller (Zeitz, Germany). […] ND96 was used as bath solution. Data acquisition was performed using Clampex 10 software (Axon Instruments), and data were analyzed with ClampFit 10 (Axon Instruments) and Origin 7 (Origin Lab Corporation).
(§5) For compound inhibition testing, from a holding potential of −80 mV a first test pulse to 0 mV of 1 s duration was followed by a repolarization step at −80 mV for 1 s, directly followed by another 1 s test pulse at +40 mV. The sweep time interval was 10 s for KV1.5 and TASK-1 channels. For the NaV1.5 channel, the block was analyzed with voltage steps from a holding potential of −80 mV. A first depolarizing pulse to −30 mV of 50 ms duration was applied, followed by a 5 ms step to −80 mV. The sweep time interval was 5 s. The compounds were applied at different concentrations to determine the half-maximal inhibitory concentration (IC50), using a fit to the Hill equation.
(§6) To test for a putative voltage-dependence of the block by the compound 6f in KV1.5, a 1.5 s voltage step protocol from −80 to +80 mV with +20 mV increments was used. The holding potential was −80 mV and the sweep time interval was 10 s. Currents were analyzed at the end of the voltage pulse. For TASK-1, voltage-dependence of block was probed using a high-potassium solution (KD96) containing in mM: KCl 96, NaCl 2, CaCl2 1.8, MgCl2 1, HEPES 5, (pH 7.5, adjusted with KOH). From a holding potential of 0 mV, voltage was stepped from −80 mV to +80 mV for 1.5 s in +20 mV steps every 10 s. […]

HEK-293 cells = assay: MTT cytotoxicity assay; type: cell-based, human
Protocol: Another method used to assess cytotoxicity was the MTT assay on HEK293 cells. Initially, the cells were seeded at 3000 cells per well in a 96-well plate. After 24 h, they were exposed to increasing compound concentrations (1, 5, 10, 25, 50, 100, 250 and 500 μM) for 72 h. The cells cultured in a medium supplemented with 10% FBS were the positive control for cell viability. Each condition was evaluated triplicate in independent experiments. The ROCHE Cell Proliferation Kit I, MTT (Cat. no. 11465007001), was used, following the manufacturer's indications. Briefly, 10 μl of the labeling reagent was added, and the plates were incubated at 37 °C for 4 h. Subsequently, 100 μl of solubilization solution was added to each well, and the plates were incubated overnight in the dark. Finally, optical density was measured at 570 nm using a microplate reader (Thermo Fisher Scientific). The optical density measurements were used to calculate cell viability, normalizing the data to the positive control. Results were expressed as a percentage of cell viability relative to this control. The IC50 value was determined by fitting a dose-response curve using a nonlinear regression model with a four-parameter logistic equation. The experimental data analysis was performed using SigmaPlot version 12.0 (Systat Software Inc).

h KV1.5 = molecular target: T1, h KV1.5 (Homo sapiens, UniProt P22460); assay: TEVC recordings in X. laevis oocytes, KV1.5; type: cell-based; conditions: for Ionic current block IKur: from inhibition curves, used for simulation
T1 construct: h KV1.5 (KCNA5, NM_002234); expressed in transfected cells; host or cells: Xenopus laevis oocytes injected with cRNA
Protocol: as §1, §2, §3, §4, §5, §6

[1] = 100 μM, +40 mV, oocytes, mean ± SD
[2] = X. laevis oocytes, TEVC, block at +40 mV

Sequence of human TASK-1 (O14649 whole entry): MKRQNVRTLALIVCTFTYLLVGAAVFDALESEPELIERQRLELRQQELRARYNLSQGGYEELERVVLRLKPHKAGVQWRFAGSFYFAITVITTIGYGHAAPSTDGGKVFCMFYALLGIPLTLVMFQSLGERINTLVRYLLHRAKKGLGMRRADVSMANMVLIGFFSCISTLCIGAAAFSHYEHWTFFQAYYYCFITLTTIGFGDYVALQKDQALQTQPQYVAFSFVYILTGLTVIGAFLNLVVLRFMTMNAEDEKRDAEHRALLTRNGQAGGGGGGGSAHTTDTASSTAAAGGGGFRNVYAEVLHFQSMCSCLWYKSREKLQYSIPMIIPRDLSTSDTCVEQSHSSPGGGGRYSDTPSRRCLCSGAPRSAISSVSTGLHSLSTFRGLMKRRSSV
T1 sequence (P22460 whole entry): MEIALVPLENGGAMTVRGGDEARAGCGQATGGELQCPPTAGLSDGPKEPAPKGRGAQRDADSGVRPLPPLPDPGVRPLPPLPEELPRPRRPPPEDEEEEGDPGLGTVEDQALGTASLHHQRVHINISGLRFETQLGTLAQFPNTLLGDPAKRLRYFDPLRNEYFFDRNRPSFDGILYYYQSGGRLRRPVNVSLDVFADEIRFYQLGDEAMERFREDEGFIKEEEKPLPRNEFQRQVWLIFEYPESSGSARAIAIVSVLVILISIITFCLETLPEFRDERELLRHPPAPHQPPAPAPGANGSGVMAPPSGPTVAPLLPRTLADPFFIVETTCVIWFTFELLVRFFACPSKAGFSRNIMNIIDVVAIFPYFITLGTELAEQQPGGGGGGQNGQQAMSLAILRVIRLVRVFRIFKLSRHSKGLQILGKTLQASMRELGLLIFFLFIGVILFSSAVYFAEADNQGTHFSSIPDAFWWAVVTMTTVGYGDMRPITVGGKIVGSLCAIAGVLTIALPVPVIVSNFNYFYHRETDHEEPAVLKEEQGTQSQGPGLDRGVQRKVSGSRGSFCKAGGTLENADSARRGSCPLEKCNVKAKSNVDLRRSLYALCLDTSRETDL

## CCCCN(CCCC)CC(=O)Nc1ccc(OC)cc1OC [Compound 6f, 2-(dibutylamine)-N-(2,4-dimethoxiphenyl)acetamide]
Human TASK-1; 1 μM
  Ionic current block IK2P: 58%
Human TASK-1; 10 μM
  Ionic current block IK2P: 75%
Human TASK-1; [1]
  inhibition at 100 µM: 84.1 ± 10.7%
Human TASK-1; 100 μM
  Ionic current block IK2P: 85%
Human TASK-1; [2]
  IC50: ~0.31 µM and 0.31 µM
Human TASK-1; oocytes, KD96 solution
  Voltage-dependence of block of TASK-1: no significant voltage-dependence
HEK-293 cells; 72 h
  Concentrations with significant cytotoxic effects (MTT): higher than 129 μM
HEK-293 cells; Homo sapiens, HEK293, 72 h, read-out: IC50 cell viability (MTT)
  IC50: 130 µM
H KV1.5; 1 μM
  Ionic current block IKur: 0%
H KV1.5; 10 μM
  Ionic current block IKur: 2.5%
H KV1.5; [1]
  inhibition at 100 µM: 55.8 ± 11.5%
H KV1.5; 100 μM
  Ionic current block IKur: 50%
H KV1.5; [2]
  IC50: 81.5 µM
H KV1.5; oocytes, 100 μM
  Voltage-dependence of block of KV1.5: no significant voltage-dependence
